Measured values as given in patent US20140127185A1, “METHODS AND COMPOSITIONS USING NEUROPROTECTIVE STEROIDS AND THROMBOLYTIC AGENTS” (priority 2012, published 2014).

Legend:
MMP-2 = experiment: Permanent MCAO in rats: MMP-2 in peri-infarct cortex (Western blot, gelatin zymography, immunohistochemistry); type: in vivo, rat; conditions: for Expression of MMP-2 (immunohistochemistry): pMCAO, brain section; for Expression of MMP-2 (immunohistochemistry) / MMP-2 activity/levels (gelatin zymography): peri-infarct cortex at 72 hours; for Expression of MMP-2 (Western blot) / MMP-2 activity/levels (gelatin zymography): permanent MCAO; for Expression of MMP-2 (Western blot): 8 mg/kg i.p. 1 hour and s.c. 6 hours post-occlusion, peri-infarct cortex at 72 hours post-MCAO; for MMP-2 activity/levels (gelatin zymography): 8 mg/kg
Source text: (§1) Permanent focal cerebral ischemia is induced in the rat by direct ligation of the MCA. Peri-operative procedures and physiological monitoring are done similarly to those for thrombotic stroke surgery. Briefly, under anesthesia, the left CCA is isolated through a ventral midline neck incision and ligated permanently with a 4-0 surgical silk ligature. The left temporoparietal region of the head is shaved and a 2-cm incision is made vertically between the orbit and the ear canal. The underlying temporalis muscle is excised, and under direct visualization, the […] MCA is exposed through a 2-mm burr hole drilled 2 mm rostral to the fusion of the zygomatic arch with the squamosal bone. Drilling is performed under saline irrigation to the area throughout the procedure to prevent heat injury. […] The site of the occlusion is proximal to the MCA bifurcation, but distal to the origin of the lenticulostriate arteries. Using fine forceps, the dura and arachnoid overlying the MCA is opened and cut. The MCA is cauterized and cut permanently to […] recanalization using a bipolar electrocauterizer without damaging the brain surface. The temporalis muscle and skin is closed in layers, and rats allowed to recover from anesthesia on the heating pad.
(§2) All experimental treatments by injection are made in stock solutions using HBC (2-hydroxypropyl-β-cyclodextrin, 25% w/v solution in H2O) as the solvent. The HBC vehicle allows progesterone and allopregnanolone to be dissolved in a non-toxic aqueous solution. The initial dose of progesterone is given intraperitoneally for rapid absorption; all other injections are given subcutaneously. A simlar protocol may be followed for allopregnanolone.
(§3) Peri-infarct cortical tissue is processed for protein analysis. Tissues are homogenized in T-per (Pierce, Rockford, Ill.) containing protease inhibitor cocktail (P8340, Sigma). Homogenates are centrifuged for 15 minutes at 13,000 g. 40 μg of total protein is separated on 8-12% gel and transferred onto polyvinylidene difluoride (Millipore, Mass., USA; PVDF) membranes at 300 mA for 2 hours. To measure the level of immunoglobulin, the membranes were incubated overnight at 4° C. with anti Rat IgG conjugated to biotin. bEND 3 cells are subjected to hypoxia/reperfusion for 9 hours and then lysed on ice in 100 μl of RIPA buffer. Cell lysated are boiled and then electrophoresed in 12% SDS-PAGE acrylamide gels, transferred onto PVDF membranes, and incubated for 1 hour in TBS-T (tris-buffered saline and 0.1% Tween 20) containing 5% bovine serum albumin (BSA). Membranes are then incubated overnight at 4° C. with primary antibodies against occludin (Invitrogen, Calif., USA; 1:1000), claudin-5 (Invitrogen; 1:1000), and ZO-1 (Invitrogen; 1:1000), washed in TBS-T, and incubated for 1 hour at room temperature with corresponding peroxidase-conjugated secondary antibodies (1:5000; KPL, Gaithersburg, Md.). All blots are stripped and re-incubated with β-actin antibodies (1:5000, Sigma) as a loading control. The peroxidase reaction is developed with an ECL-plus detection kit (Amersham BioScience, Piscataway, N.J.). Intensity of the bands is measured by an Image Gauge version. 4.0 program (FUJI Photo Film Co., Ltd).
(§4) Rats were randomly assigned to receive progesterone (n=5), allopregnanolone (n=5), or vehicle (n=5). Progesterone and allopregnanolone (8 mg/kg) were dissolved in 22.5% 2-hydroxypropyl-β-cyclodextrin (25% w/v solution in water) (HBC) and given by intraperitoneal injection 1 hour post-occlusion. An additional 8 mg/kg subcutaneous injection was given 6 hours after middle cerebral artery occlusion (MCAO).
(§5) The rats were euthanized at 72 hours post-MCAO. The peri-infarct region was sampled using a 4-mm tissue punch.

MMP-9 [1] = experiment: Permanent MCAO in rats: MMP-9 in peri-infarct cortex (Western blot, gelatin zymography, immunohistochemistry); type: in vivo, rat; conditions: for Expression of MMP-9 (immunohistochemistry): pMCAO, brain section; for Expression of MMP-9 (immunohistochemistry) / MMP-9 activity/levels (gelatin zymography): peri-infarct cortex at 72 hours; for Expression of MMP-9 (Western blot) / MMP-9 activity/levels (gelatin zymography): permanent MCAO; for Expression of MMP-9 (Western blot): 8 mg/kg i.p. 1 hour and s.c. 6 hours post-occlusion, peri-infarct cortex at 72 hours post-MCAO; for MMP-9 activity/levels (gelatin zymography): 8 mg/kg
Source text: as §1, §2, §3, §4, §5

MMP-9 [2] = experiment: MMP-9 levels in bEND3 cells exposed to H/R and tPA; type: cell-based, mouse; conditions: bEND3 cells exposed to H/R and tPA for 9 hours; progesterone pretreatment
Protocol: The bEnd 3 cells grown to confluence on coverslips are subjected to the indicated treatments. For […], cells are washed three times with PBS, fixed in 3% paraformaldehyde for 10 minutes, permeabilized with 02% Triton X-100 in PBS for 10 minutes and blocked with 10% BSA and 0.1% Triton X-100 in PBS for 1 hour. After washing with PBS, the monolyers are incubated with a primary antibody for occludin (Invitrogen, 1:200) and MMP-9 (Abeam, Mass., USA, 1:200) overnight at 4° C. The cell monolayers are then washed 3 times with PBS and incubated with Alexa Fluor 488 anti-rabbit and orange anti-mouse (Molecular Probes, Eugene, Oreg.) for 1 hour. After washing in PBS, the coverslips are mounted on glass slides with Vectasheild with dapi (Vecta Laboratories).
(§6) To mimic ischemia-like conditions in vitro, immortalized mouse brain endothelial (bEND3) cells were exposed to 6 hours of hypoxia and 3 hours of reoxygeneation with or without the administration of tPA at a dose of 20 μ/ml. […] BBB integrity was evaluated by transendothelial membrane electrical resistance (TEER) measurement, MMP-9 activity, and the alteration of tight junction proteins following in vitro H/R injury.
To directly determine MMP-9 activity after ischemia, proteolytic activity of MMP-9 was measured using a fluorescence resonance energy transfer peptide. […]

bEND3 cells = experiment: Transendothelial electrical resistance (TEER) after hypoxia/reperfusion (H/R); type: cell-based, mouse
Protocol: (§7) An immortalized mouse brain endothelial cell line (bEND 3) is purchased from American Type Culture Collection (ATCC, VA, USA) and cultured in Dulbecco's modified Eagle Medium (DMEM, ATCC) supplemented with 10% fetal bovine serum (ATCC). bEND 3 cells are seeded onto the luminal side of a filter (0.4 μm pore size; Corning, Lowell, MCA) coated with fibronectin (5 μg/ml) in 12-well plates for a transendothelial electrical resistance (TEER) test; and in 100-mm dishes for Western blot studies. Cell cultures are incubated at 37° C. in a 5%/95% mixture of CO2 and atmospheric air, and the medium is replaced every 3 days.
The electrical resistance across the membrane are measured using an Millicell ERS Voltohmmeter (Millipore, Billerica, Mass.). The extracellular matrix-treated Transwell inserts are placed in 12-well plates containing culture medium and then used to measure the background resistance. The resistance measurements of these blank filters are then subtracted from those of filters with cells. Values are shown as Q. based on culture inserts.
To mimic ischemia-like conditions in vitro, immortalized mouse brain endothelial (bEND3) cells were exposed to 6 hours of hypoxia and 3 hours of reoxygeneation with or without the administration of tPA at a dose of 20 μ/ml. Reoxygenation was initiated by adding glucose (4.5 g/L)-containing phenol red-free DMEM for 3 hours at 37° C. in 95% air and 5% CO2. The cells were treated with various concentrations progesterone for 24 hours before hypoxia/reperfusion (H/R). BBB integrity was evaluated by transendothelial membrane electrical resistance (TEER) measurement, MMP-9 activity, and the alteration of tight junction proteins following in vitro H/R injury.

claudin-5 = experiment: Claudin-5 in H/R-treated bEND3 cells (Western blot); type: cell-based, mouse; conditions: tPA with H/R
Protocol: as §7
Peri-infarct cortical tissue is processed for protein analysis. Tissues are homogenized in T-per (Pierce, Rockford, Ill.) containing protease inhibitor cocktail (P8340, Sigma). Homogenates are centrifuged for 15 minutes at 13,000 g. […] Intensity of the bands is measured by an Image Gauge version. […]
as §6

MMP-9 [3] = experiment: Active MMP-9 fluorometric FRET peptide assay of ischemic cortex lysates; type: in vivo, rat; conditions: 24 hours after ischemia; tPA at 4.5 hours; vs control and tMCAO groups
Protocol: A Fluorimetric SensoLyte™ 490 kit (AnaSpec Corp., San Jose, Calif. USA) is used to quantify the specific enzymetic activity of active MMP-9 by using a fluorescence resonance energy transfer peptide containing a fluorescent donor and quenching acceptor (Lin, Hou et al. 2008). The samples (100 μg) are placed in a 96-well plate containing 50 μl of assay buffer. The proteolytic resonance energy transfer peptide is expressed as a fold change in fluorescence intensity at excitation of 355 nm/emission of 460 nm.
For in vivo evaluation, Male SD rats were subjected to MCAO, reperfused at 4.5 hours and then treated with tPA only (5 mg/kg body weight via femoral vein) at 4.5 hours post-stroke or with progesterone (intraperitoneally) at 2 hours post-stroke plus tPA at 4.5 hours post-stroke. Rats were killed at 24 hours post-ischemia and their brains perfused for evaluation of cerebral hemorrhage, brain swelling, BBB permeability, MMP-9 activity, and the alteration of tight junction proteins.
To directly determine MMP-9 activity after ischemia, proteolytic activity of MMP-9 was measured using a fluorescence resonance energy transfer peptide. […] Consistent with the Western blot results, exposure of cells to H/R and tPA for 9 hours reduced the detected levels of occludin, as compared to control bEND 3 cells, while MMP-9 levels were increased in cells exposed to H/R and tPA for 9 hours.

occludin = experiment: Occludin in H/R-treated bEND3 cells (Western blot, immunofluorescence); type: cell-based, mouse
Protocol: as §7, §3
The bEnd 3 cells grown to confluence on coverslips are subjected to the indicated treatments. […]
as §6

[4] = test system: blood-brain barrier (BBB); experiment: BBB disruption: serum IgG in ischemic cortex by Western blot; type: in vivo, rat; conditions: progesterone 8 mg/kg, s.c.; with tPA; 24 hours after injury

SMILES	Expression of MMP-2 (immunohistochemistry) (MMP-2)	Expression of MMP-2 (Western blot) (MMP-2)	MMP-2 activity/levels (gelatin zymography) (MMP-2)	Expression of MMP-9 (immunohistochemistry) (MMP-9 [1])	Expression of MMP-9 (Western blot) (MMP-9 [1])	MMP-9 activity/levels (gelatin zymography) (MMP-9 [1])	MMP-9 levels (MMP-9 [2])	H/R-induced decrease of TEER (bEND3 cells; pretreatment with 5, 10 or 20 μM, H/R without tPA)	TEER values compared to untreated (bEND3 cells; progesterone 20 μM, H/R with tPA (FIG. 3C))	Expression of 23-kDa claudin-5 (Western blot) (claudin-5)	MMP-9 activity (FRET peptide) (MMP-9 [3])	Detected levels of occludin (immunofluorescence) (occludin; bEND3 cells exposed to H/R and tPA for 9 hours, progesterone pretreatment)	Expression of occludin (Western blot) (occludin; bEND3 cells, tPA with H/R)	Levels of serum IgG in ischemic cortex [4]
CC(=O)[C@H]1CC[C@H]2[C@@H]3CC[C@H]4C[C@H](O)CC[C@]4(C)[C@H]3CC[C@]12C [allopregnanolone, 3α-hydroxy-5α-pregnan-20-one]	reduced	decreased	decreased	reduced	decreased	decreased	–	–	–	–	–	–	–	–
CC(=O)[C@H]1CC[C@H]2[C@@H]3CCC4=CC(=O)CC[C@]4(C)[C@H]3CC[C@]12C [progesterone, pregn-4-ene-3,20-dione]	reduced	decreased	decreased	reduced	decreased	decreased	completely inhibited	significantly prevented	significantly higher	significantly prevented the decrease	inhibited	completely inhibited	significantly prevented the decrease	reduced
